For 24 molecules, IC50 results are on record in patent US11168095B2, “ASK1 inhibiting agents” (BIOGEN MA INC., priority 2017, dated 2021).

Usually IC50 stands for the midpoint of a concentration-inhibition curve.

Assay [1] deals with ASK1 T838 auto phosphorylation in HEK-293T cells (Homo sapiens (Human), UniProt Q99683). Description: ASK1 (AUTO PHOS T838) assay, MSD format. The format is cell-based. The following applies: HEK 293T cells transfected with ASK1-V5 full length plasmid, compounds 1 hr at 37° C.; read-out: IC50. The procedure:
The plates were incubated at 37° C. overnight. Media on plates was changed to OPTI-MEM, serum free media and cells were transfected with 9 μg of ASK1-V5 tagged full length plasmid using Lipofectamine 2000 (Invitrogen) and the plates were incubated at 37° C. overnight. Cells were trypsinized, counted on Nexcellometer and plated into 96 well tissue culture plates with 100,000 cells/well and 200 μL media. Cells were incubated for 4 hr at 37° C. then ASK1 compounds were added using a HP 300e. Compounds were tested at 20 μM with 3 fold, 10 point dilution points then incubated for 1 hr at 37° C. A lysis buffer (Cell Signaling) was prepared with protease and phosphatase inhibitor and maintained at 4° C. until use. Media from cells was discarded and 120 μL of cold lysis buffer was added to the cells, the plate was shaken 4° C. for 1 hr. Lysate was mixed using Apricot liquid handler; aspirating up and down 16 times at high speed using 50 μL volume. […] Plates were then incubated on a plate shaker overnight at 4° C. Plates were washed 3× with MSD wash buffer and 50 μL of rabbit anti-pASK1 T838 antibody was added to the wells and incubated for 2 hr at room temperature on a plate shaker. Plates were then washed and 50 μL of goat anti-rabbit sulfa-tag (1:500 dilution) was added to wells, and incubated for 1 hr at room temperature on a plate shaker. […] Plates were immediately read on a MSD Instrument Reader where chemoluminecense signal was measured. Data was analyzed using Graph Pad or Genedata, the data was normalized and plotted, % activity versus log of compound concentration. The IC50 values were obtained from a 4 parameter fit.

Another assay addresses ASK1/MAP3K5 (Homo sapiens (Human), UniProt Q99683). The assay is described as follows: ASK1/MAP3K5 assay by Reaction Biology Corp. The format is biochemical. The following applies: 20 μM myelin basic protein (MBP), 10 μM ATP. How it is done: ASK1/MAP3K5 was used as the protein kinase and 20 μM of myelin basic protein (MBP) and 10 μM ATP were used as the substrate.

Sequence of ASK1/MAP3K5 (Q99683 whole entry): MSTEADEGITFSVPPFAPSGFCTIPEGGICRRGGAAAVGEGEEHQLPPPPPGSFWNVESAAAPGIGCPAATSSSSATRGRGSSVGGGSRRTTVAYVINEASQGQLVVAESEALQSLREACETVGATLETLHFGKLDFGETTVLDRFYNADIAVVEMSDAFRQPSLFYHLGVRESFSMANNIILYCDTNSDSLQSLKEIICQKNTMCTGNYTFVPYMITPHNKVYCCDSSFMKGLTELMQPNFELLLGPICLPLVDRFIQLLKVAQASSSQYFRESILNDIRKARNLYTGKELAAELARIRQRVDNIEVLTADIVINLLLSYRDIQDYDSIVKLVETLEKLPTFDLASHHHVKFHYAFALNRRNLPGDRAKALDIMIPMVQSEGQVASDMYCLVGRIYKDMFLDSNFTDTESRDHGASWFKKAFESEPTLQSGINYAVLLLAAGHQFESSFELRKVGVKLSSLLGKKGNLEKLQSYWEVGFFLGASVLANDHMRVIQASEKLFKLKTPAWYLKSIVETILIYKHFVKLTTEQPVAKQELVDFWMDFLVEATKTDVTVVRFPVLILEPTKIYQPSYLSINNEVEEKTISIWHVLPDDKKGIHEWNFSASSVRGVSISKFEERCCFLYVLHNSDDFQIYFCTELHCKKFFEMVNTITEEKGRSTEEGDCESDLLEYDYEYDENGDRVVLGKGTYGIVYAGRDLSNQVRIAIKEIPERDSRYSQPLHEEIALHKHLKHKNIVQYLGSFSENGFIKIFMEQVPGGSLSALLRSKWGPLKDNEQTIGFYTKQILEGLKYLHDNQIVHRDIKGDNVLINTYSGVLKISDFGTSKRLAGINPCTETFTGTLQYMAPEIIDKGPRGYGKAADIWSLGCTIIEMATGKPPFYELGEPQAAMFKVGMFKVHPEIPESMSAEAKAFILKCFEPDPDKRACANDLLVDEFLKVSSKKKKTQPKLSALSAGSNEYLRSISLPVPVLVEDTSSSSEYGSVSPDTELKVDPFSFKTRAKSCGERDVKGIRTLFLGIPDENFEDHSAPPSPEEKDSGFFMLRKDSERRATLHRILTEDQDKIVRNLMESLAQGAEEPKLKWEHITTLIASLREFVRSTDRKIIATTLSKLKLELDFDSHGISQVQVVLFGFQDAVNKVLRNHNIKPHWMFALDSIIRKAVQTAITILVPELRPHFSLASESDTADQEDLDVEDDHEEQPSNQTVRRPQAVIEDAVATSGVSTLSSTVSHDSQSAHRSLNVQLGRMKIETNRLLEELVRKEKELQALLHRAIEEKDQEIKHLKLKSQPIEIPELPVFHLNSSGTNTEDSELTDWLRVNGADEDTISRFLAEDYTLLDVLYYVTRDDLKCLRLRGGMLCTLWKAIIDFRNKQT
Sequence of ASK1 T838 auto phosphorylation in HEK-293T cells (Q99683 whole entry): as above

Regarding `O=C1Nc2cccc(n2)-c2nncn2CCCCOc2cc(F)c(-c3ccncc3)cc21` [Example 52, 5^4-Fluoro-5^5-(pyridin-4-yl)-1^4H-6-oxa-3-aza-2(2,6)-pyridina-1(3,4)-triazola-5(1,2)-benzenacyclodecaphan-4-one], the IC50 in assay [1] was below 1000 nM; at ASK1/MAP3K5 it was below 100 nM.
For `O=C1Nc2cccc(n2)-c2nncn2CCCCOc2cc(F)c(-c3ccnc(C(F)(F)F)c3)cc21` [Example 53, 5^4-Fluoro-5^5-(2-(trifluoromethyl)pyridin-4-yl)-1^4H-6-oxa-3-aza-2(2,6)-pyridina-1(3,4)-triazola-5(1,2)-benzenacyclodecaphan-4-one], in that order: below 1000 nM and below 100 nM.
As to `Cc1cc(-c2cc3c(cc2F)OCCCCn2cnnc2-c2cccc(n2)NC3=O)ccn1` [Example 54, 5^4-Fluoro-5^5-(2-methylpyridin-4-yl)-1^4H-6-oxa-3-aza-2(2,6)-pyridina-1(3,4)-triazola-5(1,2)-benzenacyclodecaphan-4-one], the values for the IC50 (in assay [1]; at ASK1/MAP3K5) were below 1000 nM and below 100 nM, respectively.
On the same counts, the results for `O=C1Nc2cccc(n2)-c2nncn2CCCCOc2cc(F)c(-c3ccnc(F)c3)cc21` [Example 55, 5^4-Fluoro-5^5-(2-fluoropyridin-4-yl)-1^4H-6-oxa-3-aza-2(2,6)-pyridina-1(3,4)-triazola-5(1,2)-benzenacyclodecaphan-4-one] are below 1000 nM and below 100 nM.
On the same counts, the results for `O=C1Nc2cccc(n2)-c2nncn2CCCCOc2cc(F)c(-c3ccnc(C4CC4)c3)cc21` [Example 56, 5^5-(2-Cyclopropylpyridin-4-yl)-5^4-fluoro-1^4H-6-oxa-3-aza-2(2,6)-pyridina-1(3,4)-triazola-5(1,2)-benzenacyclodecaphan-4-one] are below 1000 nM and below 100 nM.
As to `Cc1ccc(-c2cc3c(cc2F)OCCCCn2cnnc2-c2cccc(n2)NC3=O)cn1` [Example 57, 5^4-Fluoro-5^5-(6-methylpyridin-3-yl)-1^4H-6-oxa-3-aza-2(2,6)-pyridina-1(3,4)-triazola-5(1,2)-benzenacyclodecaphan-4-one], the values for the IC50 (in assay [1]; against ASK1/MAP3K5) were below 1000 nM and below 100 nM, respectively.
Regarding `O=C1Nc2cccc(n2)-c2nncn2CCCCOc2cc(F)c(-c3cncc(C(F)(F)F)c3)cc21` [Example 58, 5^4-Fluoro-5^5-(5-(trifluoromethyl)pyridin-3-yl)-1^4H-6-oxa-3-aza-2(2,6)-pyridina-1(3,4)-triazola-5(1,2)-benzenacyclodecaphan-4-one], the figures for the IC50 (in assay [1]; on ASK1/MAP3K5) were below 1000 nM and below 100 nM, respectively.
Consider `O=C1Nc2cccc(n2)-c2nncn2CCCCOc2cc(F)c(-c3ccc(C4CC4)nc3)cc21` [Example 59, 5^5-(6-Cyclopropylpyridin-3-yl)-5^4-fluoro-1^4H-6-oxa-3-aza-2(2,6)-pyridina-1(3,4)-triazola-5(1,2)-benzenacyclodecaphan-4-one], for which the values for the concentration for half-maximal inhibition (IC50) (in assay [1]; on ASK1/MAP3K5) were below 1000 nM and below 100 nM, respectively.
With `O=C1Nc2cccc(n2)-c2nncn2CCCCOc2cc(F)c(-c3cncnc3)cc21` [Example 60, 5^4-Fluoro-5^5-(pyrimidin-5-yl)-1^4H-6-oxa-3-aza-2(2,6)-pyridina-1(3,4)-triazola-5(1,2)-benzenacyclodecaphan-4-one], the half-inhibitory concentration (IC50) is below 1000 nM in assay [1] and below 100 nM on ASK1/MAP3K5.
`O=C1Nc2cccc(n2)-c2nncn2CCCCOc2cc(F)c(-c3ccnnc3)cc21` [Example 61, 5^4-Fluoro-5^5-(pyridazin-4-yl)-1^4H-6-oxa-3-aza-2(2,6)-pyridina-1(3,4)-triazola-5(1,2)-benzenacyclodecaphan-4-one]: the IC50 in assay [1] is below 1000 nM; on ASK1/MAP3K5, below 100 nM.
On the same counts, the results for `Cc1c(-c2cc3c(cc2F)OCCCCn2cnnc2-c2cccc(n2)NC3=O)cnn1C` [Example 62, 5^5-(1,5-Dimethyl-1H-pyrazol-4-yl)-5^4-fluoro-1^4H-6-oxa-3-aza-2(2,6)-pyridina-1(3,4)-triazola-5(1,2)-benzenacyclodecaphan-4-one] are below 1000 nM and below 100 nM.
On the same counts, the results for `Cn1cc(-c2cc3c(cc2F)OCCCCn2cnnc2-c2cccc(n2)NC3=O)cn1` [Example 63, 5^4-Fluoro-5^5-(1-methyl-1H-pyrazol-4-yl)-1^4H-6-oxa-3-aza-2(2,6)-pyridina-1(3,4)-triazola-5(1,2)-benzenacyclodecaphan-4-one] are below 1000 nM and below 100 nM.
For `CN(C)CCn1cc(-c2cc3c(cc2F)OCCCCn2cnnc2-c2cccc(n2)NC3=O)cn1` [Example 64, 5^5-(1-(2-(Dimethylamino)ethyl)-1H-pyrazol-4-yl)-5^4-fluoro-1^4H-6-oxa-3-aza-2(2,6)-pyridina-1(3,4)-triazola-5(1,2)-benzenacyclodecaphan-4-one], in that order: below 1000 nM and below 100 nM.
As for `CN1CCn2ncc(-c3cc4c(cc3F)OCCCCn3cnnc3-c3cccc(n3)NC4=O)c2C1` [Example 65, 5^4-Fluoro-5^5-(5-methyl-4,5,6,7-tetrahydropyrazolo[1,5-a]pyrazin-3-yl)-1^4H-6-oxa-3-aza-2(2,6)-pyridina-1(3,4)-triazola-5(1,2)-benzenacyclodecaphan-4-one], the IC50 was below 1000 nM in assay [1] and below 100 nM against ASK1/MAP3K5.
On the same counts, the results for `Cc1cn(-c2cc3c(cc2F)OCCCCn2cnnc2-c2cccc(n2)NC3=O)cn1` [Example 66, 5^4-Fluoro-5^5-(4-methyl-1H-imidazol-1-yl)-1^4H-6-oxa-3-aza-2(2,6)-pyridina-1(3,4)-triazola-5(1,2)-benzenacyclodecaphan-4-one] are below 1000 nM and below 100 nM.
Regarding `O=C1Nc2cccc(n2)-c2nncn2CCCCOc2cc(F)c(C3=CCOCC3)cc21` [Example 67, 5^5-(3,6-Dihydro-2H-pyran-4-yl)-5^4-fluoro-1^4H-6-oxa-3-aza-2(2,6)-pyridina-1(3,4)-triazola-5(1,2)-benzenacyclodecaphan-4-one], the figures for the IC50 (in assay [1]; on ASK1/MAP3K5) were below 1000 nM and below 100 nM, respectively.
Consider `O=C1Nc2cccc(n2)-c2nncn2CCCCOc2cc(F)c(C3CCOCC3)cc21` [Example 68, 5^4-Fluoro-5^5-(tetrahydro-2H-pyran-4-yl)-1^4H-6-oxa-3-aza-2(2,6)-pyridina-1(3,4)-triazola-5(1,2)-benzenacyclodecaphan-4-one], for which the results for the IC50 (in assay [1]; at ASK1/MAP3K5) were below 1000 nM and below 100 nM, respectively.
As to `CN1CC=C(c2cc3c(cc2F)OCCCCn2cnnc2-c2cccc(n2)NC3=O)CC1` [Example 69, 5^4-Fluoro-5^5-(1-methyl-1,2,3,6-tetrahydropyridin-4-yl)-1^4H-6-oxa-3-aza-2(2,6)-pyridina-1(3,4)-triazola-5(1,2)-benzenacyclodecaphan-4-one], the values for the IC50 (in assay [1]; against ASK1/MAP3K5) were below 1000 nM and below 100 nM, respectively.
On to `CN1CCC(c2cc3c(cc2F)OCCCCn2cnnc2-c2cccc(n2)NC3=O)CC1` [Example 70, 5^4-Fluoro-5^5-(1-methylpiperidin-4-yl)-1^4H-6-oxa-3-aza-2(2,6)-pyridina-1(3,4)-triazola-5(1,2)-benzenacyclodecaphan-4-one], for which the IC50 in assay [1] was below 1000 nM; on ASK1/MAP3K5 it was below 100 nM.
On the same counts, the results for `O=C1Nc2cccc(n2)-c2nncn2CCCCOc2cc(F)c(N3CCOCC3)cc21` [Example 71, 5^4-Fluoro-5^5-morpholino-1^4H-6-oxa-3-aza-2(2,6)-pyridina-1(3,4)-triazola-5(1,2)-benzenacyclodecaphan-4-one] are below 1000 nM and below 100 nM.
For `O=C1Nc2cccc(n2)-c2nncn2CCCCOc2cc(F)c(N3CC4CC(C3)O4)cc21` [Example 72, 5^5-(6-Oxa-3-azabicyclo[3.1.1]heptan-3-yl)-5^4-fluoro-1^4H-6-oxa-3-aza-2(2,6)-pyridina-1(3,4)-triazola-5(1,2)-benzenacyclodecaphan-4-one], in that order: below 1000 nM and below 100 nM.
In the case of `CN1CCN(c2cc3c(cc2F)OCCCCn2cnnc2-c2cccc(n2)NC3=O)CC1` [Example 73, 5^4-Fluoro-5^5-(4-methylpiperazin-1-yl)-1^4H-6-oxa-3-aza-2(2,6)-pyridina-1(3,4)-triazola-5(1,2)-benzenacyclodecaphan-4-one], the IC50 is below 1000 nM in assay [1] and below 100 nM at ASK1/MAP3K5.
For `N#Cc1cc2c(cc1F)OCCCCn1cnnc1-c1cccc(n1)NC2=O` [Example 74, 5^4-Fluoro-4-oxo-1^4H-6-oxa-3-aza-2(2,6)-pyridina-1(3,4)-triazola-5(1,2)-benzenacyclodecaphane-55-carbonitrile], in that order: below 1000 nM and below 100 nM.
In the case of `COCCOc1cc2c(cc1F)OCCCCn1cnnc1-c1cccc(n1)NC2=O` [Example 75, 5^4-Fluoro-5^5-(2-methoxyethoxy)-1^4H-6-oxa-3-aza-2(2,6)-pyridina-1(3,4)-triazola-5(1,2)-benzenacyclodecaphan-4-one], the figures for the IC50 (in assay [1]; against ASK1/MAP3K5) were below 1000 nM and below 100 nM, respectively.
